“And” between values parts separate entries of the source, which are not always exact repeats. Equal entries are not always repeated.
Experiments:
Test in all cases: LanthaScreen Eu Kinase Binding Assay, panel of 486 biochemical kinase assays
[1] = molecular target: various kinases (Homo sapiens, UniProt P53667); details: LIMK1
[2] = molecular target: various kinases (Homo sapiens, UniProt Q9Y2H1); details: kinase STK38L (NDR2); LanthaScreen Binding
[3] = molecular target: various kinases (Homo sapiens, UniProt P10721, D816H); details: KIT D816H
Sequence of various kinases (Homo sapiens, UniProt P10721, D816H) (P10721 26-976 D816H): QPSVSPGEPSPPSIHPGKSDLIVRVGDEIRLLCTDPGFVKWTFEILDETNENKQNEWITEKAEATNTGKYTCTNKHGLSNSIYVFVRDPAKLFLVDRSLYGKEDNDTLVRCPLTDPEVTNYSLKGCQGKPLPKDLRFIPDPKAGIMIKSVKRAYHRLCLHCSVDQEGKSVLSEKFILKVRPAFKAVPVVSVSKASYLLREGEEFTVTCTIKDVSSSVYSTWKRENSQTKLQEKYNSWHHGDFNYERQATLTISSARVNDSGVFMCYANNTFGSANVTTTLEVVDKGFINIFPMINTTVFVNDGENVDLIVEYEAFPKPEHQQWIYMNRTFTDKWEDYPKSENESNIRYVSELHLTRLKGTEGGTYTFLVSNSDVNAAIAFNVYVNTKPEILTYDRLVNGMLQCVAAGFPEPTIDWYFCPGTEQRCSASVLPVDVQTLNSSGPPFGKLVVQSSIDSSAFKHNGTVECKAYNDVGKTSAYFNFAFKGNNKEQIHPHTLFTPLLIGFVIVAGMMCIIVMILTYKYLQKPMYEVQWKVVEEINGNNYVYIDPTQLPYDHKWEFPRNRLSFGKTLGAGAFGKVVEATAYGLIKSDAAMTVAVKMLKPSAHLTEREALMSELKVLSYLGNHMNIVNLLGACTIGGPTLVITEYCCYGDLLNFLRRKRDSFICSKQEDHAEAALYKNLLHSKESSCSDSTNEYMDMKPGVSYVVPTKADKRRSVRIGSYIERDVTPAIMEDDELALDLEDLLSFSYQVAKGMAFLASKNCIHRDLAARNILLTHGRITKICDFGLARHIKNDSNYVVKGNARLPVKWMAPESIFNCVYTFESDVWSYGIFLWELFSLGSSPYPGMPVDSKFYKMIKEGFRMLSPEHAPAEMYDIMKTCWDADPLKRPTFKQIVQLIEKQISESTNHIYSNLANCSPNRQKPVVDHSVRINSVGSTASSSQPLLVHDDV

[4] = molecular target: various kinases (Homo sapiens, UniProt P10721, Y823D); details: KIT Y823D
Sequence of various kinases (Homo sapiens, UniProt P10721, Y823D) (P10721 26-976 Y823D): as the sequence (P10721 26-976 D816H) above, with H791D, Y798D counted along it

[5] = molecular target: various kinases (Homo sapiens, UniProt Q9BYT3); details: kinase STK33; LanthaScreen Binding
Sequence of various kinases (Homo sapiens, UniProt Q9BYT3) (Q9BYT3 whole entry): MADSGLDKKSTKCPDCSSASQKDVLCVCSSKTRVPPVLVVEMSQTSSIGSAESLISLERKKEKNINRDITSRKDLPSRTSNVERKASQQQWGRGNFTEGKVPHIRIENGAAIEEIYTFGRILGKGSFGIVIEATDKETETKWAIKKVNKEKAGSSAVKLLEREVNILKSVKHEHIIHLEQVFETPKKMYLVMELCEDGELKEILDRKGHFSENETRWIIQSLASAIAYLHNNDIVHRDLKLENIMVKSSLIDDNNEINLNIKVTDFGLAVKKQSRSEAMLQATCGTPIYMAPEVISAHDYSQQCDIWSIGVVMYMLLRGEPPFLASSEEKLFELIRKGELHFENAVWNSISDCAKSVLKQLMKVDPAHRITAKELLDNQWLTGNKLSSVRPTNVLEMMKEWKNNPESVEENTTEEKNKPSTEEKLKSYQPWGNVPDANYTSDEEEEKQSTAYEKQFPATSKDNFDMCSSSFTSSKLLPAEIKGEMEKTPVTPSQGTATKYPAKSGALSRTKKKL

[6] = molecular target: various kinases (Homo sapiens, UniProt Q96RR4); details: CAMKK2 (CaMKK beta)
Sequence of various kinases (Homo sapiens, UniProt Q96RR4) (Q96RR4 whole entry): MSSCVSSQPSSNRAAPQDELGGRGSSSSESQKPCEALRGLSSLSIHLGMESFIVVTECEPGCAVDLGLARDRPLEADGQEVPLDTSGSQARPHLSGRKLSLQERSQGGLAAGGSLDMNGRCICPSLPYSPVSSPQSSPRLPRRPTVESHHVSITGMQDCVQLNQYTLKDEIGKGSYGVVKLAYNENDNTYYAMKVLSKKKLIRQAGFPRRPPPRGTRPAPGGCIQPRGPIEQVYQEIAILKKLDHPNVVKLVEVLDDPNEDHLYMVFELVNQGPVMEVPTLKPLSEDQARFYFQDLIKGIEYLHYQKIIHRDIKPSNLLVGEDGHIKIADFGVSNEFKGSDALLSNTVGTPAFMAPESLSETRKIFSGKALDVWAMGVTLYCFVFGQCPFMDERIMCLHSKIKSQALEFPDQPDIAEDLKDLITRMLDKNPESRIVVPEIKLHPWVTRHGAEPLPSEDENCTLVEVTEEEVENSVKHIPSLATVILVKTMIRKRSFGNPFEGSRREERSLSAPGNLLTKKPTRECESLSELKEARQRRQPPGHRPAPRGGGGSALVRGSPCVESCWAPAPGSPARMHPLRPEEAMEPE

[7] = molecular target: various kinases (Homo sapiens, UniProt Q9Y2K2); details: kinase SIK3; LanthaScreen Binding
Sequence of various kinases (Homo sapiens, UniProt Q9Y2K2) (Q9Y2K2 whole entry): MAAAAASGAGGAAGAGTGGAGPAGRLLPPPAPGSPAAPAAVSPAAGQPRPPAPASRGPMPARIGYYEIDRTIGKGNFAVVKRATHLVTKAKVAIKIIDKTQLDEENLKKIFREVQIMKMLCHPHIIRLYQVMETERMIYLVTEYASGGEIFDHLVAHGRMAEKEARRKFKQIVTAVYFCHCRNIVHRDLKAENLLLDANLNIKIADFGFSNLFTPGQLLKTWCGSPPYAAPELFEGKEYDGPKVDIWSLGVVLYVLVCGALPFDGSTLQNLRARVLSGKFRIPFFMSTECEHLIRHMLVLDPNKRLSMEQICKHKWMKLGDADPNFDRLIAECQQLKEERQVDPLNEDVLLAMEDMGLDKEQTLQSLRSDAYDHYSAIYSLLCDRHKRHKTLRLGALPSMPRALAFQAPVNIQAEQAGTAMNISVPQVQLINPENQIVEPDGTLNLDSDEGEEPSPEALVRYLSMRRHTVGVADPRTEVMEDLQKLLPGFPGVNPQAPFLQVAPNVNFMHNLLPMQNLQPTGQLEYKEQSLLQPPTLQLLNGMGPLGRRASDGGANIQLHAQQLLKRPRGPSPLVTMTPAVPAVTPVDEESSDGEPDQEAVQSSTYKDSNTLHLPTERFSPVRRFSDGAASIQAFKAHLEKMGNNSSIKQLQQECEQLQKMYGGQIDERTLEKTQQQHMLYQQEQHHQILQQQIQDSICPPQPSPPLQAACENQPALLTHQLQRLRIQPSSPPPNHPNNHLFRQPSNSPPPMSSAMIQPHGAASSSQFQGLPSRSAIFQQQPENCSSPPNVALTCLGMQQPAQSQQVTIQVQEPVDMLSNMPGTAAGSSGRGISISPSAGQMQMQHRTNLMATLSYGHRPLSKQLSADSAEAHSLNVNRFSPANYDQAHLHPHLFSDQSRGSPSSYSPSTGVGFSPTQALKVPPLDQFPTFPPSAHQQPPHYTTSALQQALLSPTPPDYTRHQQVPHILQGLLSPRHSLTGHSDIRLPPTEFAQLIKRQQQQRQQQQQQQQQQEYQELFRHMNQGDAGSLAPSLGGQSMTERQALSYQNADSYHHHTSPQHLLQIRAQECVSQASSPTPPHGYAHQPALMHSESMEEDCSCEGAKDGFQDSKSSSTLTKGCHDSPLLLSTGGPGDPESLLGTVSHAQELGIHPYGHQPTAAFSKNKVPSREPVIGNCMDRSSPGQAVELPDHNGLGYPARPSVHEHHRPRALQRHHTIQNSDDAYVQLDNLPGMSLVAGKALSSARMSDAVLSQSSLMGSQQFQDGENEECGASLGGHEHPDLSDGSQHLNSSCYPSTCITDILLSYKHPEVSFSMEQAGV

[8] = molecular target: T1, various kinases (Homo sapiens, UniProt Q7L7X3); details: kinase TAOK1; LanthaScreen Binding
T1 sequence (Q7L7X3 1-1001): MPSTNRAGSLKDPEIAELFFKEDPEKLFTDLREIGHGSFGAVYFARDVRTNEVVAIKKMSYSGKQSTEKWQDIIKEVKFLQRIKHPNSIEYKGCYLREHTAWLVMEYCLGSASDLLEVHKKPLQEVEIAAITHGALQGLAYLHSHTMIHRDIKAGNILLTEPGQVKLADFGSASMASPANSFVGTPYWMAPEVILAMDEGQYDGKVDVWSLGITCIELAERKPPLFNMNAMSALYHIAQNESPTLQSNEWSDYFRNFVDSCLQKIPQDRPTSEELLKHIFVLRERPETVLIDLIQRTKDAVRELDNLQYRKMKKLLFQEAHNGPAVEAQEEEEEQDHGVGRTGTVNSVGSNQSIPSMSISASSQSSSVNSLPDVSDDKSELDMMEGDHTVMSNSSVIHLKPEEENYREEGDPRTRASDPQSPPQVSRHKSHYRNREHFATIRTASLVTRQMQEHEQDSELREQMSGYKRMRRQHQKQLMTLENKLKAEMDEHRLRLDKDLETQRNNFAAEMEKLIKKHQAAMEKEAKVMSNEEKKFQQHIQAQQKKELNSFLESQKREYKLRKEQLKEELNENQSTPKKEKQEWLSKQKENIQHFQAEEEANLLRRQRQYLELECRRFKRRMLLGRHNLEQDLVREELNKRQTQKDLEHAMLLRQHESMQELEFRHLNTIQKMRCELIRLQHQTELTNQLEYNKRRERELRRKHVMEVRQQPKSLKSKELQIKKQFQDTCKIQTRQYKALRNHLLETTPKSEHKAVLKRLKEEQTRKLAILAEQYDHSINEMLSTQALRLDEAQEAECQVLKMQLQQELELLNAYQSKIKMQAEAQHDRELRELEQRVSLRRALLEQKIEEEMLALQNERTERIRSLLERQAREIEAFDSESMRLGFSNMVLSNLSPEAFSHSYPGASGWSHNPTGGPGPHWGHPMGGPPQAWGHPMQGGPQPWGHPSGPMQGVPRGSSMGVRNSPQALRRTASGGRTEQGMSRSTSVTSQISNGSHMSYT

[9] = molecular target: T2, various kinases (Homo sapiens, UniProt Q9UEE5); details: kinase STK17A (DRAK1); LanthaScreen Binding
T2 sequence (Q9UEE5 1-414): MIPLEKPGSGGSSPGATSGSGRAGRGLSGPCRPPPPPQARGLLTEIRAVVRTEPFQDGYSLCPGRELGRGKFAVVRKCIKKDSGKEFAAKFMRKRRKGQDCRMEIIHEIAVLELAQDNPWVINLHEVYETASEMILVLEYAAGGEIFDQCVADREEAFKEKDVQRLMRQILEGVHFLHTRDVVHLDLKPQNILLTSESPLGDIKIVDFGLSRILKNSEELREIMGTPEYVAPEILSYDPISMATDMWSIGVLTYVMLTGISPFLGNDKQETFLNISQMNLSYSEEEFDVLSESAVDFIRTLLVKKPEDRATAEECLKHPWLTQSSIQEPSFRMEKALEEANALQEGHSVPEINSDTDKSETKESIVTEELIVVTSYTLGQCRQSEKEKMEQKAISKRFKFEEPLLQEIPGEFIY

[10] = molecular target: various kinases (Homo sapiens, UniProt O14936); details: CASK
[11] = molecular target: various kinases (Homo sapiens, UniProt Q8IWQ3); details: BRSK2
[12] = molecular target: various kinases (Homo sapiens, UniProt O75716); details: kinase STK16 (PKL12); LanthaScreen Binding
Sequence of various kinases (Homo sapiens, UniProt O75716) (O75716 whole entry): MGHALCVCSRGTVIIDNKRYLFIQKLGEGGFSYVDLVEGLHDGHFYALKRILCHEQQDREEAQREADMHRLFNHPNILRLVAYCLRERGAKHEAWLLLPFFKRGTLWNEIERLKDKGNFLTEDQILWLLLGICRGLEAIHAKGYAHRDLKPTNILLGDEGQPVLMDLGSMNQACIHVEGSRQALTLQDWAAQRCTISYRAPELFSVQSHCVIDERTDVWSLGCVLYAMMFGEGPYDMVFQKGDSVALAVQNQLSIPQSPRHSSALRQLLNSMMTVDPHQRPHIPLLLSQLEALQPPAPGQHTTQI

[13] = molecular target: various kinases (Homo sapiens, UniProt Q02779); details: MAP3K10 (MLK2)
[14] = molecular target: various kinases (Homo sapiens, UniProt Q8NI60); details: ADCK3
[15] = molecular target: various kinases (Homo sapiens, UniProt Q15746); details: MYLK (MLCK)
[16] = molecular target: various kinases (Homo sapiens, UniProt Q9Y616); details: IRAK3
[17] = molecular target: various kinases (Homo sapiens, UniProt P54646)
Sequence of various kinases (Homo sapiens, UniProt P54646) (P54646 whole entry): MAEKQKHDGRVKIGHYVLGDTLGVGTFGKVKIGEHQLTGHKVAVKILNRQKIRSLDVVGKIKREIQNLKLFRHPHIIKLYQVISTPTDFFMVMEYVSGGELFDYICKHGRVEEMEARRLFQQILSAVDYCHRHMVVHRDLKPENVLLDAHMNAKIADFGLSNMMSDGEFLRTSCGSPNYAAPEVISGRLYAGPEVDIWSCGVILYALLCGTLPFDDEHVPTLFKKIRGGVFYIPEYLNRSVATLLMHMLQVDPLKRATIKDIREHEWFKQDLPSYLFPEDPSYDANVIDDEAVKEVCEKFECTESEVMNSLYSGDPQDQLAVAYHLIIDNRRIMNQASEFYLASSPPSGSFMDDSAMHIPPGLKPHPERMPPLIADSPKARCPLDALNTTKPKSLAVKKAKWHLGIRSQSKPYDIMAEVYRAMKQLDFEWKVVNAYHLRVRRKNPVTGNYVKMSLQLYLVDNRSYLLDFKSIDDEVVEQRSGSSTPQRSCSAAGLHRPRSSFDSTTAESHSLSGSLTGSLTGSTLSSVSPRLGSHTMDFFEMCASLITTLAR

[18] = molecular target: various kinases (Homo sapiens, UniProt Q86YV6); details: MYLK4
[19] = molecular target: various kinases (Homo sapiens, UniProt Q00536); details: CDK16 (PCTK1)/cyclin Y
[20] = molecular target: various kinases (Homo sapiens, UniProt P15056, V600E); details: BRAF V599E

Sequence of various kinases (Homo sapiens, UniProt Q9Y2H1) (Q9Y2H1 whole entry): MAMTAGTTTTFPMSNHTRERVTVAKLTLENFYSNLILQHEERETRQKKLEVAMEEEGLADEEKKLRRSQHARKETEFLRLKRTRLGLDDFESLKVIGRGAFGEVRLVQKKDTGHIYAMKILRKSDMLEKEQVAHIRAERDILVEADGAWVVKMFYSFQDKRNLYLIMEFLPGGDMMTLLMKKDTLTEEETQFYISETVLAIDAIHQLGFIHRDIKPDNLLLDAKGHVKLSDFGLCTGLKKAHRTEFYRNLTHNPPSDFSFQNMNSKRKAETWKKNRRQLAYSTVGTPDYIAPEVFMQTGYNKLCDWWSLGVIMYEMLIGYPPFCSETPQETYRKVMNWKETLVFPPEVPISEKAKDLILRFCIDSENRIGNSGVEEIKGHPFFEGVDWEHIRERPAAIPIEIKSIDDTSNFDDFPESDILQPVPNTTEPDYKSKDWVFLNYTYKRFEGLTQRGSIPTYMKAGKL

COc1ccc2c(c1)[C@]1(C[C@H]1c1ccc3c(/C=C/c4ccc(CN5C[C@@H](C)O[C@@H](C)C5)cc4)n[nH]c3c1)C(=O)N2 [CFI-400945]
% Inhibition [1]: 11% and 15% | % Inhibition Average [2]: 16% | % Inhibition Duplicate #1 [2]: 10% | % Inhibition Duplicate #2 [2]: 21% | % Inhibition [3]: 21% and 20% | % Inhibition [4]: 4% and -6% | % Inhibition Average [5]: -2% | % Inhibition Duplicate #1 [5]: -2% | % Inhibition Duplicate #2 [5]: -2% | % Inhibition [6]: 33% and 23% | % Inhibition Average [7]: 5% | % Inhibition Duplicate #1 [7]: 10% | % Inhibition Duplicate #2 [7]: 1% | % Inhibition Average [8]: 14% | % Inhibition Duplicate #1 [8]: 15% | % Inhibition Duplicate #2 [8]: 13% | % Inhibition Average [9]: 19% | % Inhibition Duplicate #1 [9]: 24% | % Inhibition Duplicate #2 [9]: 13% | % Inhibition [10]: 57% and 65% | % Inhibition [11]: -4% and -7% | % Inhibition Average [12]: 1% | % Inhibition Duplicate #1 [12]: -1% | % Inhibition Duplicate #2 [12]: 4% | % Inhibition [13]: -2% and 1% | % Inhibition [14]: -1% and -4% | % Inhibition [15]: 0% and -2% | % Inhibition [16]: 29% | % Inhibition ([17]; AMPK (A2/B2/G1)): 14% and 19% | % Inhibition ([17]; AMPK (A2/B2/G2)): 14% and 12% | % Inhibition [18]: 7% and 13% | % Inhibition [19]: 10% and 9% | % Inhibition [20]: 9% and 7%

Reference: paper PMC5762315, “Inhibition of polo-like kinase 4 (PLK4): a new therapeutic option for rhabdoid tumors and pediatric medulloblastoma” (Oncotarget, 2017)
